Data reported in ChEMBL document CHEMBL1201862, “PubChem BioAssay data set” (2004).
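Compound exposure: 48 hours, 5 concentrations, 96-well plates. Here, GI50 denotes the concentration required for 50% inhibition of growth.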 Activity calls are given as the source filed them. Rule as the data show it: active = GI50 up to about 1.1 µM and inactive = higher.

What was measured:
Assay in all cases: growth of human tumour cells (NCI), 48 h
[1] = test system: UACC-62
[2] = test system: NCI-H522
[3] = test system: SF-268
[4] = test system: MDA-MB-435
[5] = test system: BT-549
[6] = test system: ACHN
[7] = test system: SW-620
[8] = test system: IGROV-1
[9] = test system: Malme-3M
[10] = test system: NCI-H460
[11] = test system: KM12
[12] = test system: 786-0
[13] = test system: SR
[14] = test system: K562
[15] = test system: HCT-15
[16] = test system: NCI-H23
[17] = test system: A498
[18] = test system: LOX IMVI
[19] = test system: MDA-N

| SMILES | GI50 [1] | GI50 [2] | GI50 [3] | GI50 [4] | GI50 [5] | GI50 [6] | GI50 [7] | GI50 [8] | GI50 [9] | GI50 [10] | GI50 [11] | GI50 [12] | GI50 [13] | GI50 [14] | GI50 [15] [µM] | GI50 [16] | GI50 [17] | GI50 [18] | GI50 [19] |
| --- | --- | --- | --- | --- | --- | --- | --- | --- | --- | --- | --- | --- | --- | --- | --- | --- | --- | --- | --- |
| Cn1c(C(C)(C)OC(=O)Oc2ccccc2)cnc1[N+](=O)[O-] | 55.6 µM (inactive) | 70.8 µM (inactive) | > 100 µM (inactive) | > 100 µM (inactive) | > 100 µM (inactive) | > 100 µM (inactive) | 72.8 µM (inactive) | 55.6 µM (inactive) | 32.3 µM (inactive) | 80.9 µM (inactive) | 58.6 µM (inactive) | > 100 µM (inactive) | 16.8 µM (inactive) | 59.2 µM (inactive) | > 100 | > 100 µM (inactive) | > 100 µM (inactive) | – | – |
| N#CCCN(c1ccc(C=O)cc1)S(=O)(=O)c1ccccc1 | > 100 µM (inactive) | > 100 µM (inactive) | > 100 µM (inactive) | – | – | > 100 µM (inactive) | > 100 µM (inactive) | > 100 µM (inactive) | > 100 µM (inactive) | > 100 µM (inactive) | > 100 µM (inactive) | > 100 µM (inactive) | > 100 µM (inactive) | > 100 µM (inactive) | > 100 | – | > 100 µM (inactive) | > 100 µM (inactive) | – |
| CCOC(=O)C1C(C)C2(C#N)C(=N)OC1(C)C2(C#N)C#N (centres undefined) | 46 µM (inactive) | 71.9 µM (inactive) | 57.9 µM (inactive) | 65.9 µM (inactive) | – | 38.6 µM (inactive) | 84.7 µM (inactive) | 39.2 µM (inactive) | 77.3 µM (inactive) | – | > 100 µM (inactive) | 66.7 µM (inactive) | – | 39.4 µM (inactive) | 12.5 | 60 µM (inactive) | > 100 µM (inactive) | 26.8 µM (inactive) | 46.1 µM (inactive) |
| COc1cc(-c2cc(OC)c(OC)c3ccc(Br)cc23)c2cc(Br)ccc2c1OC | 21.9 µM (inactive) | 42.9 µM (inactive) | 20.2 µM (inactive) | 23.7 µM (inactive) | – | 22.1 µM (inactive) | 80.5 µM (inactive) | 23.9 µM (inactive) | 24.1 µM (inactive) | 41.7 µM (inactive) | – | 19.8 µM (inactive) | 34.4 µM (inactive) | 22.4 µM (inactive) | 63.2 | 22.4 µM (inactive) | 23.8 µM (inactive) | 19.3 µM (inactive) | 22.5 µM (inactive) |
| Cn1c(=O)nc2n(-c3ccc(Cl)cc3)c3ccc(Cl)cc3nc-2c1=O | 1.07 µM (active) | 6.35 µM (inactive) | 6.78 µM (inactive) | – | – | – | 4.44 µM (inactive) | 19.5 µM (inactive) | – | 5.98 µM (inactive) | 14.5 µM (inactive) | 12.2 µM (inactive) | 7.62 µM (inactive) | 5.02 µM (inactive) | 8.02 | 2.36 µM (inactive) | 5.58 µM (inactive) | 3.14 µM (inactive) | – |
| CN(C)CCCOCCn1c2c(c3ccccc31)CCCC2 | 16.7 µM (inactive) | – | 26.9 µM (inactive) | 17.7 µM (inactive) | – | 15.2 µM (inactive) | 18.7 µM (inactive) | 15.8 µM (inactive) | 18 µM (inactive) | 15 µM (inactive) | 21.2 µM (inactive) | 15.2 µM (inactive) | 18.1 µM (inactive) | 12.9 µM (inactive) | 15 | 15.1 µM (inactive) | – | 16.1 µM (inactive) | 14.9 µM (inactive) |
| CC(=O)OCC1OC(n2c(-c3ccccc3)c(C(C)=O)c(-c3cccc4ccccc34)c(C#N)c2=S)C(OC(C)=O)C(OC(C)=O)C1OC(C)=O (centres undefined) | – | > 100 µM (inactive) | > 100 µM (inactive) | > 100 µM (inactive) | – | > 100 µM (inactive) | > 100 µM (inactive) | > 100 µM (inactive) | > 100 µM (inactive) | > 100 µM (inactive) | > 100 µM (inactive) | > 100 µM (inactive) | > 100 µM (inactive) | > 100 µM (inactive) | > 100 | > 100 µM (inactive) | > 100 µM (inactive) | > 100 µM (inactive) | > 100 µM (inactive) |
| CC1=COC(=O)c2ccccc2N1 | > 100 µM (inactive) | > 100 µM (inactive) | > 100 µM (inactive) | – | – | > 100 µM (inactive) | > 100 µM (inactive) | > 100 µM (inactive) | > 100 µM (inactive) | > 100 µM (inactive) | > 100 µM (inactive) | > 100 µM (inactive) | > 100 µM (inactive) | > 100 µM (inactive) | > 100 | > 100 µM (inactive) | – | > 100 µM (inactive) | – |
| CN(C)N1C(=C(C#N)C#N)C(c2ccccc2)CC1C#N (centres undefined) | > 100 µM (inactive) | > 100 µM (inactive) | > 100 µM (inactive) | > 100 µM (inactive) | – | > 100 µM (inactive) | > 100 µM (inactive) | > 100 µM (inactive) | > 100 µM (inactive) | – | > 100 µM (inactive) | > 100 µM (inactive) | > 10 µM (inactive) | > 100 µM (inactive) | > 100 | > 100 µM (inactive) | > 100 µM (inactive) | > 100 µM (inactive) | > 100 µM (inactive) |
| C=C1C(=O)O[C@H]2/C=C(/C)C3=CC(=O)[C@@](C)(C[C@@H](OC(=O)/C(C)=C\C)C12)O3 (some centres undefined) | 0.891 µM (active) | 0.138 µM (active) | 1.88 µM (inactive) | 1.21 µM (inactive) | – | 0.232 µM (active) | 0.128 µM (active) | 0.971 µM (active) | – | 2.35 µM (inactive) | 2.86 µM (inactive) | 0.426 µM (active) | 0.083 µM (active) | 0.154 µM (active) | 0.216 | 2.42 µM (inactive) | 5.2 µM (inactive) | 0.272 µM (active) | 0.684 µM (active) |
| O=C(Nc1ccc(C(F)(F)F)cc1[N+](=O)[O-])C(=O)C(C(=O)c1ccc2ccccc2c1)C1OC(=O)c2ccccc21 (centres undefined) | 5.6 µM (inactive) | 7.11 µM (inactive) | 4.16 µM (inactive) | – | – | 13.3 µM (inactive) | 4.78 µM (inactive) | 19.5 µM (inactive) | 11.6 µM (inactive) | 3.81 µM (inactive) | 11.9 µM (inactive) | 5.56 µM (inactive) | 2.81 µM (inactive) | 5.57 µM (inactive) | 8.81 | 5.31 µM (inactive) | 4.09 µM (inactive) | 6.38 µM (inactive) | – |
| O=c1cc(-c2ccccc2)c2cc3c(=O)ccoc3cc2o1 | 62.2 µM (inactive) | – | > 100 µM (inactive) | – | – | 87.9 µM (inactive) | > 100 µM (inactive) | – | 81.5 µM (inactive) | > 100 µM (inactive) | – | > 100 µM (inactive) | > 100 µM (inactive) | > 100 µM (inactive) | > 100 | > 100 µM (inactive) | 15.7 µM (inactive) | > 100 µM (inactive) | – |
| COc1cc(-c2ccc(NC(=O)SCCC(=O)O)cc2OC)ccc1NC(=O)SCCC(=O)O | – | > 100 µM (inactive) | > 100 µM (inactive) | – | – | > 100 µM (inactive) | > 100 µM (inactive) | – | > 100 µM (inactive) | > 100 µM (inactive) | > 100 µM (inactive) | > 100 µM (inactive) | > 100 µM (inactive) | > 100 µM (inactive) | > 100 | > 100 µM (inactive) | > 100 µM (inactive) | > 100 µM (inactive) | – |
